# Test results published in ChEMBL document CHEMBL1201862, “PubChem BioAssay data set” (2004).
# Active and inactive are the calls of the source.
# Key:
# [1] = A375 melanoma cell viability loss, dose response, counter-screen for MITF inhibitor project, CellTiter-Glo luminescence, dry powder, set 4 (AID 624364); assay type: functional, cell-based; conditions: A-375;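 also: A375 melanoma cells are MITF independent so this is a counter screen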
# [2] = MITF Orthogonal Assay: MALME3 CTG Assay Measured in Cell-Based System Using Plate Reader - 2084-04_Inhibitor_Dose_DryPowder_Activity_Set6.; assay type: functional; conditions: MALME-3
# [3] = target: Dual specificity protein phosphatase 3 (Homo sapiens, UniProt P51452); assay: VHR1 phosphatase inhibitors, biochemical (AID 1878)
# [4] = target: Bifunctional protein GlmU (Mycobacterium tuberculosis, UniProt P9WMN3); assay: Inhibitors of Mycobacterial Glucosamine-1-phosphate acetyl transferase (GlmU). Secondary screen.; set-up: species or system Mycobacterium tuberculosis H37Rv
# Procathepsin L = Procathepsin L (Homo sapiens, UniProt P07711)
# [5] = tested on: Streptococcus sp. 'group A'; assay: growth inhibition of control SK(-) GAS strain, dose response, counter-screen for streptokinase expression inhibitor project, luminescence, kanamycin, BacTiterGlo, confirmation (AID 1900); assay type: functional, organism-based
# [6] = cytotoxicity in KRAS-transformed pancreatic duct cells, primary screen, cell-based, fluorescence, HTS (AID 431); assay type: functional; conditions: Homo sapiens;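 also: cell line used: HPDE-C7K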
# Ephrin type-A receptor 4 = Ephrin type-A receptor 4 (Mus musculus, UniProt Q03137); assay: inhibitors of EphA4 binding to KYL peptide, primary screen, biochemical, colorimetric, mouse EphA4 (AID 689); assay type: functional
# [7] = cytotoxicity in HPDE-C7 cells, cell-based, fluorescence, HTS (AID 430); assay type: functional; conditions: Homo sapiens
# [8] = target: cGMP-dependent protein kinase 1 (Homo sapiens, UniProt Q13976); assay type: functional;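 also: value from a kinome panel screen with PRKG1 as the panel member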
# [9] = target: Leukocyte tyrosine kinase receptor (Homo sapiens, UniProt P29376); assay: Navigating the Kinome. Panel member name: LTK; assay type: functional
# [10] = target: Protein kinase C delta type (Homo sapiens, UniProt Q05655); assay type: functional
# [11] = target: Ribosomal protein S6 kinase beta-1 (Homo sapiens, UniProt P23443); assay type: functional;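 also: measured as one member of a kinome-wide profiling panel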
# [12] = target: Serine/threonine-protein kinase TAO1 (Homo sapiens, UniProt Q7L7X3); assay type: functional
# [13] = target: BDNF/NT-3 growth factors receptor (Homo sapiens, UniProt Q16620); assay type: functional;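 also: NTRK2 measured as one member of a broad kinome-wide kinase profiling panel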
# Ephrin type-A receptor 2 = Ephrin type-A receptor 2 (Homo sapiens, UniProt P29317); assay type: functional;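 also: EPHA2 tested as one member of a kinome-wide kinase panel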
# [14] = target: Phosphorylase b kinase gamma catalytic chain, liver/testis isoform (Homo sapiens, UniProt P15735); assay type: functional;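 also: PHKG2 measured as one member of a kinome-wide kinase panel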
# [15] = target: MAP kinase-interacting serine/threonine-protein kinase 2 (Homo sapiens, UniProt Q9HBH9); assay type: functional
# Insulin receptor = Insulin receptor (Homo sapiens, UniProt P06213); assay type: functional;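 also: insulin receptor kinase tested as one member of a kinome-wide kinase panel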
# [16] = target: Death-associated protein kinase 3 (Homo sapiens, UniProt O43293); assay type: functional;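 also: measured as one member of a kinome-wide profiling panel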
# [17] = target: Dual specificity tyrosine-phosphorylation-regulated kinase 3 (Homo sapiens, UniProt O43781); assay type: functional;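 also: measured as one member of a broad kinase panel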
# [18] = target: Tyrosine-protein kinase Lck (Homo sapiens, UniProt P06239); assay type: functional;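 also: lck was assayed as one member of a kinase panel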
# [19] = target: Vascular endothelial growth factor receptor 1 (Homo sapiens, UniProt P17948); assay type: functional;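 also: measured within a kinome-wide profiling panel, FLT1 as the panel member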
# [20] = target: Serine/threonine-protein kinase TBK1 (Homo sapiens, UniProt Q9UHD2); assay: Navigating the Kinome. Panel member name: TBK1; assay type: functional
# [21] = target: Inhibitor of nuclear factor kappa-B kinase subunit epsilon (Homo sapiens, UniProt Q14164); assay: Navigating the Kinome. Panel member name: IKBKE; assay type: functional
# [22] = target: cAMP-dependent protein kinase catalytic subunit alpha (Homo sapiens, UniProt P17612); assay type: functional
# [23] = target: Testis-specific serine/threonine-protein kinase 1 (Homo sapiens, UniProt Q9BXA7); assay type: functional
# [24] = target: Tyrosine-protein kinase JAK2 (Homo sapiens, UniProt O60674); assay type: functional;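 also: JAK2 tested as one member of a kinase panel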
# [25] = target: Serine/threonine-protein kinase 3 (Homo sapiens, UniProt Q13188); assay type: functional;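 also: measured as one member of a kinome-wide kinase panel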
# [26] = target: Megakaryocyte-associated tyrosine-protein kinase (Homo sapiens, UniProt P42679); assay type: functional;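 also: affinity measured as one member of a kinase panel (Navigating the Kinome) against MATK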
# [27] = target: Tyrosine-protein kinase Srms (Homo sapiens, UniProt Q9H3Y6); assay type: functional;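 also: SRMS measured as one member of a kinome-wide kinase profiling panel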
# [28] = target: Tyrosine-protein kinase Lyn (Homo sapiens, UniProt P07948); assay type: functional;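 also: lyn as one member of a kinase panel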
# [29] = target: Glycogen synthase kinase-3 beta (Homo sapiens, UniProt P49841); assay type: functional;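 also: value comes from a broad kinome profiling panel, with GSK3B as the panel member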
# [30] = target: Mitogen-activated protein kinase kinase kinase kinase 5 (Homo sapiens, UniProt Q9Y4K4); assay type: functional;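 also: measured as one member of a kinome-spanning kinase panel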
# [31] = target: Vascular endothelial growth factor receptor 2 (Homo sapiens, UniProt P35968); assay type: functional
# [32] = target: Serine/threonine-protein kinase Nek2 (Homo sapiens, UniProt P51955); assay type: functional
# [33] = target: Macrophage-stimulating protein receptor (Homo sapiens, UniProt Q04912); assay: Navigating the Kinome. Panel member name: MST1R; assay type: functional
# [34] = target: Maternal embryonic leucine zipper kinase (Homo sapiens, UniProt Q14680); assay type: functional
# [35] = target: Tyrosine-protein kinase SYK (Homo sapiens, UniProt P43405); assay type: functional
# [36] = target: Cyclin-dependent kinase 7 (Homo sapiens, UniProt P50613); assay type: functional;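 also: value comes from a kinome-wide kinase profiling panel in which CDK7 is one member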
# [37] = target: MAP/microtubule affinity-regulating kinase 3 (Homo sapiens, UniProt P27448); assay type: functional;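 also: MARK3 affinity measured as one member of a kinome panel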
# [38] = target: Casein kinase I isoform alpha (Homo sapiens, UniProt P48729); assay type: functional
# [39] = target: Non-receptor tyrosine-protein kinase TYK2 (Homo sapiens, UniProt P29597); assay type: functional
# [40] = target: Calcium/calmodulin-dependent protein kinase type 1 (Homo sapiens, UniProt Q14012); assay type: functional
# [41] = target: Casein kinase II subunit alpha (Homo sapiens, UniProt P68400); assay type: functional
# Sequence of Cyclin-dependent kinase 7 (P50613 whole entry): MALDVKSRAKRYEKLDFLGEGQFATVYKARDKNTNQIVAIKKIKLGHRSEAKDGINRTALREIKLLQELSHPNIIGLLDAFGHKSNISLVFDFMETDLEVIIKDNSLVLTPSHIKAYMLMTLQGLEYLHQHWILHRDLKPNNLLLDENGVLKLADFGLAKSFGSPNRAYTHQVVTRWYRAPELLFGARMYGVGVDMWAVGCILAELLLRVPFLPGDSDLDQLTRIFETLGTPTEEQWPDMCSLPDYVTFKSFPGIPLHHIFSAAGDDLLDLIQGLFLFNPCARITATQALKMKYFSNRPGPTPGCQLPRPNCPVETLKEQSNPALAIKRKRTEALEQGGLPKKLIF
# Sequence of Ephrin type-A receptor 2 (P29317 whole entry, canonical isoform): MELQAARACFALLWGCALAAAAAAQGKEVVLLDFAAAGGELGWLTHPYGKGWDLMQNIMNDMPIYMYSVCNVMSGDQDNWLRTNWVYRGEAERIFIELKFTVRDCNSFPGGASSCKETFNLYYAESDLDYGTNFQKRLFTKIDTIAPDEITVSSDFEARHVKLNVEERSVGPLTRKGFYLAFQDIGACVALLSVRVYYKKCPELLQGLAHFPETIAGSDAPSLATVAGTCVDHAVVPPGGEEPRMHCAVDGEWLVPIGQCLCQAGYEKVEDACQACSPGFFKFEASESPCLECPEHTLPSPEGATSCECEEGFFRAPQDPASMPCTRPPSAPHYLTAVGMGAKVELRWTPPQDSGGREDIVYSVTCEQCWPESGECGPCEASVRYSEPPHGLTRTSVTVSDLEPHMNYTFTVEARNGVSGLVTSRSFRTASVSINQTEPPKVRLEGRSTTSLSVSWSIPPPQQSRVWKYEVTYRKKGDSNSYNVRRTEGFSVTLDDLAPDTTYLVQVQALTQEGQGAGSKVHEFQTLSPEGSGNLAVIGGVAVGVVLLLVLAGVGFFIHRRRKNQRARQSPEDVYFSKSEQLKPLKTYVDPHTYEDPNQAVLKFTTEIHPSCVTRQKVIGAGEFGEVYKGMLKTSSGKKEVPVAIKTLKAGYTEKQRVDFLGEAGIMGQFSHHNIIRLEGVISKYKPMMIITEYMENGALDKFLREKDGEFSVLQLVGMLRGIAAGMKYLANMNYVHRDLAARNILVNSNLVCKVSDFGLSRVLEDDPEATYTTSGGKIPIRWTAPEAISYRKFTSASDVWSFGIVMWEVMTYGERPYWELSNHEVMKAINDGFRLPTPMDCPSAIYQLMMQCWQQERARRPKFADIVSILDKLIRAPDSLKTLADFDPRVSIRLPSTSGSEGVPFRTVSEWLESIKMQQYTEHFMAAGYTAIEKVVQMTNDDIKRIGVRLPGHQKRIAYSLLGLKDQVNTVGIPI
# Sequence of Mitogen-activated protein kinase kinase kinase kinase 5 (Q9Y4K4 whole entry): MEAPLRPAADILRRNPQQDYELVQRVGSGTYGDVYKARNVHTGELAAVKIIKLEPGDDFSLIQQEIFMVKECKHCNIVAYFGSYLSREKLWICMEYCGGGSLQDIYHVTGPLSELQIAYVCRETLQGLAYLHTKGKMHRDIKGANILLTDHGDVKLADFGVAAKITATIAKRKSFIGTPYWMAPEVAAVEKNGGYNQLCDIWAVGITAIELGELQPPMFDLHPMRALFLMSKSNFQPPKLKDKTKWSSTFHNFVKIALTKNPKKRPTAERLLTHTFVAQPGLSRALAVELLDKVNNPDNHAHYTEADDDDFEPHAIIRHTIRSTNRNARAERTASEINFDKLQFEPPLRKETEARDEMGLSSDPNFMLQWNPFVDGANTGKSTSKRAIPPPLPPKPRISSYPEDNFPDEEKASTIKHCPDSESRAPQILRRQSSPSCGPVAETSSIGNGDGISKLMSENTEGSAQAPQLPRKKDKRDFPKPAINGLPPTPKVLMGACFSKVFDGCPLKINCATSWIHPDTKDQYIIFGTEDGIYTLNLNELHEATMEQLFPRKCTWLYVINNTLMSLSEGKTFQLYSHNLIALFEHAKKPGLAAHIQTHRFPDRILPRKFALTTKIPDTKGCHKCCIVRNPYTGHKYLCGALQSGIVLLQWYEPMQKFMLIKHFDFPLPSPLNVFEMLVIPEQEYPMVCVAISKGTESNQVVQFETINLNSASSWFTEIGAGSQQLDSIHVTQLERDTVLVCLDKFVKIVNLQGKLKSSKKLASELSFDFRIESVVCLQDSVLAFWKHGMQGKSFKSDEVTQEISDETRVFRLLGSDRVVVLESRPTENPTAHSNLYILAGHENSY
# Sequence of Vascular endothelial growth factor receptor 1 (P17948 whole entry): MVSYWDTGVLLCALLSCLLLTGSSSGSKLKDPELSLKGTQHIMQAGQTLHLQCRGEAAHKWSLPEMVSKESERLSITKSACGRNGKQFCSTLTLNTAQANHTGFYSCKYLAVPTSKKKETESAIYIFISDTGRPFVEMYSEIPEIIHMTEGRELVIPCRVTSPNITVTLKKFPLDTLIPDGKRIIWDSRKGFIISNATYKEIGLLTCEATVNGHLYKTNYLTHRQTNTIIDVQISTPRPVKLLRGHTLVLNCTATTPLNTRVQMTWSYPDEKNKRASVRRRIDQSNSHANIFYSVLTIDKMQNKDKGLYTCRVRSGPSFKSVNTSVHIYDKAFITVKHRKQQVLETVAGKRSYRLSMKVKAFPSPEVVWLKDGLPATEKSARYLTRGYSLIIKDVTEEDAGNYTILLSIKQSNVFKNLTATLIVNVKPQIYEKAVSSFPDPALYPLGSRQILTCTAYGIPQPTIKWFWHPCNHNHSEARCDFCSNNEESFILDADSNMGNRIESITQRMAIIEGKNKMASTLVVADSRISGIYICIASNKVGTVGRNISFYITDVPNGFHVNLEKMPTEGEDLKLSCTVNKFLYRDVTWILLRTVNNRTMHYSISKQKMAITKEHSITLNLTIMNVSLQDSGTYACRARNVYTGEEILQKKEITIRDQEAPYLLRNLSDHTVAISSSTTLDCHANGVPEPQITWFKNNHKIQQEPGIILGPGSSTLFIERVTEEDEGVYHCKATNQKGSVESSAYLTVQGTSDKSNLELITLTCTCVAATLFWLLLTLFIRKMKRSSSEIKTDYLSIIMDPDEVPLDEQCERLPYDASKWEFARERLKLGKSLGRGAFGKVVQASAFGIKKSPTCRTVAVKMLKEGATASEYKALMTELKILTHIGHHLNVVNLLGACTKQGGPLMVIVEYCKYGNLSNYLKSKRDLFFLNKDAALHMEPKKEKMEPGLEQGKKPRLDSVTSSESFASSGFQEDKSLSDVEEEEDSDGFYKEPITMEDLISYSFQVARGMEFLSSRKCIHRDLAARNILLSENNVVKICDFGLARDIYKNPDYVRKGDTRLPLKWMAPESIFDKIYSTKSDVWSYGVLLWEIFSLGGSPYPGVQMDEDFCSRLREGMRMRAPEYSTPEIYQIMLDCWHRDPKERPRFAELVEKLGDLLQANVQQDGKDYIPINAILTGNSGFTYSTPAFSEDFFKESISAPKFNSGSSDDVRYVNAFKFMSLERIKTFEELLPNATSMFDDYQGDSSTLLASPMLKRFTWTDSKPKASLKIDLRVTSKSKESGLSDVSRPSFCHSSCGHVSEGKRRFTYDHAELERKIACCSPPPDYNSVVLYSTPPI
# Sequence of Insulin receptor (P06213 28-758 limits assumed): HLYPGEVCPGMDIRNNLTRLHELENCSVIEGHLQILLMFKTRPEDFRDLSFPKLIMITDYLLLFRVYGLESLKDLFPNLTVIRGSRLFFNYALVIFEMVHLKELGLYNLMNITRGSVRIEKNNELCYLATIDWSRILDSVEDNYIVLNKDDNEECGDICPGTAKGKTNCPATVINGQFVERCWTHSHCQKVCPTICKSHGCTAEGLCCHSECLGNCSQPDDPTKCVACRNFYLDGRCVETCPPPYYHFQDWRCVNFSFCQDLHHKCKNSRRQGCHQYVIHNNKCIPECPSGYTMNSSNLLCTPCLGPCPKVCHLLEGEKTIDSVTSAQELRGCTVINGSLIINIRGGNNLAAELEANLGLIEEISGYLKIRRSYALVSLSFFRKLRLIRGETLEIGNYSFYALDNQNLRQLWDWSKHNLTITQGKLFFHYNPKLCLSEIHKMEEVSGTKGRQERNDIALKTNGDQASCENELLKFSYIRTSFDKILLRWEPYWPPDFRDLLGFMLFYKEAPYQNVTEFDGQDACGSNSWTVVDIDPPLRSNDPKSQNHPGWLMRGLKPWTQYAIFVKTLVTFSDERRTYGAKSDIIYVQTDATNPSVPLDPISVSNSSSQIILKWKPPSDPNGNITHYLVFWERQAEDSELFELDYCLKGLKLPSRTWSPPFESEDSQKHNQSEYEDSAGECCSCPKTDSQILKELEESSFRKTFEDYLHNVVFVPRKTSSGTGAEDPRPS
# Sequence of Insulin receptor (P06213 763-1382 limits assumed): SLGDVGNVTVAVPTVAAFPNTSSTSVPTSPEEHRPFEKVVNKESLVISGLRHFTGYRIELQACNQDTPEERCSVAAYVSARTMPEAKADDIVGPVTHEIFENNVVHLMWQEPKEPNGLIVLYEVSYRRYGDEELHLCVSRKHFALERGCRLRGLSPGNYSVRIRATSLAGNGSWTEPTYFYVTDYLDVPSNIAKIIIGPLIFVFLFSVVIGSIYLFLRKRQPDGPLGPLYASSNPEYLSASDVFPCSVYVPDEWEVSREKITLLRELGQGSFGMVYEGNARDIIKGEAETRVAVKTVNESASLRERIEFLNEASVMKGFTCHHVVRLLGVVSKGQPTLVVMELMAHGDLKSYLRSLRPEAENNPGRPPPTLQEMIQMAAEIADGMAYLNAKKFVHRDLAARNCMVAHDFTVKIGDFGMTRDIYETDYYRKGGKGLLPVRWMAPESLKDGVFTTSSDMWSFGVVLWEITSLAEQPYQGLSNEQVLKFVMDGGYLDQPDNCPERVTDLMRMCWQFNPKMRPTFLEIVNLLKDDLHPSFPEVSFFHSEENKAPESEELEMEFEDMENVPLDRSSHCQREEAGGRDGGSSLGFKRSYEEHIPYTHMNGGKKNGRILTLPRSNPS
# Sequence of Dual specificity protein phosphatase 3 (P51452 whole entry): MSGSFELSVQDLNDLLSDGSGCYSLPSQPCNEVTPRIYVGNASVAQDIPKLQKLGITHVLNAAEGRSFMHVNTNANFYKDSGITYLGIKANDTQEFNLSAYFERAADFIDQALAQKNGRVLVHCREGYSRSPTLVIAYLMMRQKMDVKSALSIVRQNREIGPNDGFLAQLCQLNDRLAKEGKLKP
smiles,measurement,setting,value
C=CCNC1=C(Cl)C(=O)c2ccccc2C1=O,AC50,[1],> 70 µM (inactive)
same,AC50,[2],9.99 µM (active)
CS(=O)(=O)c1ccc2c(c1)SC1=NC(=O)/C(=C/c3ccc(O)c(O)c3)C(=N)N12,IC50,[3],4.57 µM (active)
same,IC50,[4],159 µM (active)
same,IC50,Procathepsin L,> 59.6 µM (not active)
CCOC(=O)C(C(=O)OCC)c1cc(Br)c2noc3c2c1C(=O)c1ccccc1-3,EC50,[5],2.9 µM (active)
same,EC50,[6],3.06 µM (active)
same,IC50,Ephrin type-A receptor 4,300 nM (active)
same,EC50,[7],3.03 µM (active)
COc1ccc(C(=O)Nc2n[nH]c3ccc(-c4cn(Cc5ccccc5)nn4)cc23)cc1OC,Ki,[8],631 nM (active)
same,Ki,[9],> 2.51 µM (inactive)
same,Ki,[10],3.16 µM (active)
same,Ki,[11],100 nM (active)
same,Ki,[12],5.01 µM (active)
same,Ki,[13],> 5.01 µM (inactive)
same,Ki,Ephrin type-A receptor 2,> 3.16 µM (inactive)
same,Ki,[14],316 nM (active)
same,Ki,[15],3.16 µM (active)
same,Ki,Insulin receptor,1.26 µM (active)
same,Ki,[16],31.6 nM (active)
same,Ki,[17],631 nM (active)
same,Ki,[18],2.51 µM (active)
same,Ki,[19],200 nM (active)
same,Ki,[20],25.1 nM (active)
same,Ki,[21],200 nM (active)
same,Ki,[22],501 nM (active)
same,Ki,[23],> 1.58 µM (inactive)
same,Ki,[24],126 nM (active)
same,Ki,[25],794 nM (active)
same,Ki,[26],> 2 µM (inactive)
same,Ki,[27],> 1.58 µM (inactive)
same,Ki,[28],501 nM (active)
same,Ki,[29],> 100 nM (inactive)
same,Ki,[30],501 nM (active)
same,Ki,[31],398 nM (active)
same,Ki,[32],6.31 µM (active)
same,Ki,[33],794 nM (active)
same,Ki,[34],398 nM (active)
same,Ki,[35],20 nM (active)
same,Ki,[36],126 nM (active)
same,Ki,[37],63.1 nM (active)
same,Ki,[38],398 nM (active)
same,Ki,[39],20 nM (active)
same,Ki,[40],> 1.58 µM (inactive)
same,Ki,[41],15.8 nM (active)
